Data: article PMC7731220, “Pharmacophore Modeling and 3D-QSAR Study of Indole and Isatin Derivatives as Antiamyloidogenic Agents Targeting Alzheimer’s Disease” (Molecules, 2020)

Legend:
Aβ40 = Aβ40 (Homo sapiens, UniProt P05067); assay: Inhibition of Aβ40 self-aggregation (thioflavin T fluorescence, 2% HFIP); conditions: read-out: Aβ40 Aggregation Inhibition % at 100 μM
Chain of Aβ40 (P05067 672-711 limits assumed): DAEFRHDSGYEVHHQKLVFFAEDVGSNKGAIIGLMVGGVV
Experimental: All the newly prepared compounds were tested in a routine in vitro assay of inhibition of Aβ40 self-aggregation [25].
All assays were performed in 96-well plates (Greiner Bio-One, Kremsmünster, Austria) using an Infinite M1000 Pro plate reader (Tecan, Cernusco s.N., Italy). Inhibition data were obtained as mean ± SD (for single concentration points) or mean ± SEM from three independent experiments (for IC50s), using Prism (GraphPad Prism version 5.00 for Windows, GraphPad Software, San Diego, CA, USA).
Assay of aggregation of Aβ40 (EzBiolab, Carmel, IN, USA) was performed as described [25], using 2% of 1,1,1,3,3,3-hexafluoro-2-propanol as aggregation enhancer and spectrofluorimetric detection of thioflavin T fluorescence as the probe of amyloid aggregation.

SMILES | melting point | inhibition at 100 µM (Aβ40)
O=C1C(=Cc2ccc(O)cc2)Nc2ccccc21 [Compound 27, 2-(4-Hydroxybenzylidene)indolin-3-one] | > 250 °C | 69 ± 1%
O=C1C(c2c(O)nc3ccccc3c2O)=Nc2ccccc21 [Compound 43, 2-(2,4-Dihydroxyquinolin-3-yl)-3H-indol-3-one] | 90 to 92 °C | 17 ± 3%
